Test results taken from ChEMBL document CHEMBL5584243, “Discovery of JNJ-74856665: A Novel Isoquinolinone DHODH Inhibitor for the Treatment of AML” (J Med Chem, 2024).
pIC50: −log10 of the molar value. ≈ marks a conversion by molar mass, not a printed value.

System: MOLM-13
Assay: Antitumor activity against human MOLM-13 cells xenografted in NSG mouse assessed as tumor growth inhibition at po administrated for 21 days
Type: functional, organism-based
Details: time 21.0 day

Structure (SMILES) | Activity
CCn1c(CO)nn(-c2cc3c(C(C)C)cn(-c4c(F)cccc4Cl)c(=O)c3cc2F)c1=O | Dose-Dependent Effect

Biological target: Dihydroorotate dehydrogenase (quinone), mitochondrial (Homo sapiens, UniProt Q02127)
Sequence (Q02127 whole entry): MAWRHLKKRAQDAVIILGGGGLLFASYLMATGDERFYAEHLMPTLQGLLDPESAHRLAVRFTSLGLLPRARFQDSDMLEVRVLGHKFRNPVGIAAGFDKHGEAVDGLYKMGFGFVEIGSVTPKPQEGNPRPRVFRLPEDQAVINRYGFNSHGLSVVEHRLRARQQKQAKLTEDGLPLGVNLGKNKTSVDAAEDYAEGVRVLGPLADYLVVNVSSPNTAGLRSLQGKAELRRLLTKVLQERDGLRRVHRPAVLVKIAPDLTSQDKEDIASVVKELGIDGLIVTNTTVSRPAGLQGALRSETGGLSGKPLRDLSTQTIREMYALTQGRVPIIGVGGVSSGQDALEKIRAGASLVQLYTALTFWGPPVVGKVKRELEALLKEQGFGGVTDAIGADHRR
Assay: Inhibition of recombinant human DHODH followed by DHO substrate by DCIP dye absorbance based spectrophotometric analysis
Details: not given

Structure (SMILES) | pIC50
CCn1c(CO)nn(-c2nc(OC(C)C(F)(F)F)c(C(=O)Nc3c(F)cccc3Cl)cc2F)c1=O (stereo not given) | 9.70

System: MOLM-13
Assay: Antiproliferative activity against human MOLM-13 cells assessed as inhibition of cell growth incubated for 72 hrs by CellTiter-Glo assay
Type: functional, cell-based
Details: MOLM-13, 72 h

Structure (SMILES) | pIC50
CCn1c(CO)nn(-c2cc3c(C(C)C)cn(-c4cccc(F)c4C)c(=O)c3cc2F)c1=O | 8.25
CCn1c(CO)nn(-c2cc3c([C@@H](C)C(F)(F)F)cn(-c4ccccc4C)c(=O)c3cc2F)c1=O | 9.38
CCn1c(CO)nn(-c2cc3c(C(C)C)cn(-c4c(F)cccc4Cl)c(=O)c3cc2F)c1=O | 9.66
CCn1c(CO)nn(-c2nc(OC(C)C(F)(F)F)c(C(=O)Nc3c(F)cccc3Cl)cc2F)c1=O (stereo not given) | 9.80

System: not listed separately
Assay: Passive permeability across apical to basolateral side in dog MDCK-MDR1 cells
Type: ADME, cell-based, Canis lupus familiaris
Details: not given

Structure (SMILES) | Papp A→B [×10⁻⁶ cm/s]
CCn1c(CO)nn(-c2cc3c(C(C)C)cn(-c4cccc(F)c4C)c(=O)c3cc2F)c1=O | 23.5
CCn1c(CO)nn(-c2cc3c([C@@H](C)C(F)(F)F)cn(-c4ccccc4C)c(=O)c3cc2F)c1=O | < 41
CCn1c(CO)nn(-c2cc3c(C(C)C)cn(-c4c(F)cccc4Cl)c(=O)c3cc2F)c1=O | 24.5

System: not listed separately
Assay: Lipophilicity, logD of compound
Type: physicochemical
Details: octanol/water

Structure (SMILES) | logD
CCn1c(CO)nn(-c2cc3c([C@@H](C)C(F)(F)F)cn(-c4ccccc4C)c(=O)c3cc2F)c1=O | 2.6
CCn1c(CO)nn(-c2cc3c(C(C)C)cn(-c4c(F)cccc4Cl)c(=O)c3cc2F)c1=O | 3.1

System: not listed separately
Assay: Metabolic stability in human liver microsomes assessed as half life incubated upto 60 mins in presence of NADPH by LC-MS/MS analysis
Type: ADME, Microsome
Details: not given

Structure (SMILES) | half-life [h]
CCn1c(CO)nn(-c2cc3c(C(C)C)cn(-c4cccc(F)c4C)c(=O)c3cc2F)c1=O | > 3
CCn1c(CO)nn(-c2cc3c([C@@H](C)C(F)(F)F)cn(-c4ccccc4C)c(=O)c3cc2F)c1=O | > 3
CCn1c(CO)nn(-c2cc3c(C(C)C)cn(-c4c(F)cccc4Cl)c(=O)c3cc2F)c1=O | > 3

System: not listed separately
Assay: Metabolic stability in mouse liver microsomes assessed as half life incubated upto 60 mins in presence of NADPH by LC-MS/MS analysis
Type: ADME, Microsome
Details: not given

Structure (SMILES) | half-life [h]
CCn1c(CO)nn(-c2cc3c(C(C)C)cn(-c4cccc(F)c4C)c(=O)c3cc2F)c1=O | > 3
CCn1c(CO)nn(-c2cc3c([C@@H](C)C(F)(F)F)cn(-c4ccccc4C)c(=O)c3cc2F)c1=O | > 3
CCn1c(CO)nn(-c2cc3c(C(C)C)cn(-c4c(F)cccc4Cl)c(=O)c3cc2F)c1=O | > 3

System: not listed separately
Assay: Equilibrium solubility of compound in PBS at pH 2 incubated for 2 to 5 days by HPLC analysis
Type: physicochemical
Details: PBS, time 2-5 day

Structure (SMILES) | solubility thermodynamic [µM]
CCn1c(CO)nn(-c2cc3c(C(C)C)cn(-c4cccc(F)c4C)c(=O)c3cc2F)c1=O | 235 (≈ 107 µg/mL)
CCn1c(CO)nn(-c2cc3c([C@@H](C)C(F)(F)F)cn(-c4ccccc4C)c(=O)c3cc2F)c1=O | 184 (≈ 90.2 µg/mL)
CCn1c(CO)nn(-c2cc3c(C(C)C)cn(-c4c(F)cccc4Cl)c(=O)c3cc2F)c1=O | < 4

System: not listed separately
Assay: Equilibrium solubility of compound in PBS at pH 7 incubated for 2 to 5 days by HPLC analysis
Type: physicochemical
Details: time 2-5 day

Structure (SMILES) | solubility thermodynamic [µM]
CCn1c(CO)nn(-c2cc3c(C(C)C)cn(-c4cccc(F)c4C)c(=O)c3cc2F)c1=O | 189 (≈ 85.9 µg/mL)
CCn1c(CO)nn(-c2cc3c([C@@H](C)C(F)(F)F)cn(-c4ccccc4C)c(=O)c3cc2F)c1=O | 181 (≈ 88.8 µg/mL)
CCn1c(CO)nn(-c2cc3c(C(C)C)cn(-c4c(F)cccc4Cl)c(=O)c3cc2F)c1=O | < 4
CCn1c(CO)nn(-c2nc(OC(C)C(F)(F)F)c(C(=O)Nc3c(F)cccc3Cl)cc2F)c1=O (stereo not given) | < 4

System: not listed separately
Assay: Equilibrium solubility of compound in SGF at pH 1 using crystalline form incubated for 2 to 5 days by HPLC analysis
Type: ADME
Details: time 2-5 day

Structure (SMILES) | solubility thermodynamic [µg/mL]
CCn1c(CO)nn(-c2cc3c(C(C)C)cn(-c4c(F)cccc4Cl)c(=O)c3cc2F)c1=O | < 5

System: not listed separately
Assay: Equilibrium solubility of compound in FaSSIF at pH 6.5 using crystalline form incubated for 2 to 5 days by HPLC analysis
Type: ADME
Details: time 2-5 day

Structure (SMILES) | solubility thermodynamic [µg/mL]
CCn1c(CO)nn(-c2cc3c(C(C)C)cn(-c4c(F)cccc4Cl)c(=O)c3cc2F)c1=O | < 5

System: not listed separately
Assay: Plasma protein binding in human at 1 uM incubated for 6.5 hrs by LC-MS/MS analysis
Type: ADME, cell-free
Details: read-out: PPB (converted)

Structure (SMILES) | fraction unbound at 6.5 h, 1 µM
CCn1c(CO)nn(-c2cc3c([C@@H](C)C(F)(F)F)cn(-c4ccccc4C)c(=O)c3cc2F)c1=O | 0.1
CCn1c(CO)nn(-c2cc3c(C(C)C)cn(-c4c(F)cccc4Cl)c(=O)c3cc2F)c1=O | 0.042

System: not listed separately
Assay: Plasma protein binding in C57BL mouse at 1 uM incubated for 6.5 hrs by LC-MS/MS analysis
Type: ADME, cell-free
Details: read-out: PPB (converted)

Structure (SMILES) | fraction unbound at 6.5 h, 1 µM
CCn1c(CO)nn(-c2cc3c([C@@H](C)C(F)(F)F)cn(-c4ccccc4C)c(=O)c3cc2F)c1=O | 0.093
CCn1c(CO)nn(-c2cc3c(C(C)C)cn(-c4c(F)cccc4Cl)c(=O)c3cc2F)c1=O | 0.024

System: not listed separately
Assay: Volume of distribution at steady state in C57BL mouse at 2 mg/kg,iv measured upto 24 hrs by LC-MS/MS analysis
Type: ADME, organism-based
Details: in vivo, read-out: Vdss

Structure (SMILES) | Vd [L/kg]
CCn1c(CO)nn(-c2cc3c([C@@H](C)C(F)(F)F)cn(-c4ccccc4C)c(=O)c3cc2F)c1=O | 1.3
CCn1c(CO)nn(-c2cc3c(C(C)C)cn(-c4c(F)cccc4Cl)c(=O)c3cc2F)c1=O | 1.3

System: not listed separately
Assay: Half life in C57BL mouse at 2 mg/kg,iv measured upto 24 hrs by LC-MS/MS analysis
Type: ADME, organism-based
Details: in vivo

Structure (SMILES) | half-life [h]
CCn1c(CO)nn(-c2cc3c([C@@H](C)C(F)(F)F)cn(-c4ccccc4C)c(=O)c3cc2F)c1=O | 4
CCn1c(CO)nn(-c2cc3c(C(C)C)cn(-c4c(F)cccc4Cl)c(=O)c3cc2F)c1=O | 5.1

System: not listed separately
Assay: Cmax in C57BL mouse at […] measured upto 24 hrs by LC-MS/MS analysis
Type: ADME, organism-based
Details: in vivo

Structure (SMILES) | Cmax [ng/mL]
CCn1c(CO)nn(-c2cc3c([C@@H](C)C(F)(F)F)cn(-c4ccccc4C)c(=O)c3cc2F)c1=O | 4500
CCn1c(CO)nn(-c2cc3c(C(C)C)cn(-c4c(F)cccc4Cl)c(=O)c3cc2F)c1=O | 8200

System: not listed separately
Assay: Tmax in C57BL mouse at […] measured upto 24 hrs by LC-MS/MS analysis
Type: ADME, organism-based
Details: in vivo

Structure (SMILES) | Tmax [h]
CCn1c(CO)nn(-c2cc3c([C@@H](C)C(F)(F)F)cn(-c4ccccc4C)c(=O)c3cc2F)c1=O | 1.5
CCn1c(CO)nn(-c2cc3c(C(C)C)cn(-c4c(F)cccc4Cl)c(=O)c3cc2F)c1=O | 0.83

System: not listed separately
Assay: AUC (0 to infinity) in C57BL mouse at 2 mg/kg,iv measured upto 24 hrs by LC-MS/MS analysis
Type: ADME, organism-based
Details: in vivo

Structure (SMILES) | AUC [ng·h/mL]
CCn1c(CO)nn(-c2cc3c([C@@H](C)C(F)(F)F)cn(-c4ccccc4C)c(=O)c3cc2F)c1=O | 39000
CCn1c(CO)nn(-c2cc3c(C(C)C)cn(-c4c(F)cccc4Cl)c(=O)c3cc2F)c1=O | 71800

System: not listed separately
Assay: Oral bioavailability in C57BL mouse at 10 mg/kg measured upto 24 hrs by LC-MS/MS analysis
Type: ADME, organism-based
Details: in vivo

Structure (SMILES) | bioavailability [%]
CCn1c(CO)nn(-c2cc3c([C@@H](C)C(F)(F)F)cn(-c4ccccc4C)c(=O)c3cc2F)c1=O | 98
CCn1c(CO)nn(-c2cc3c(C(C)C)cn(-c4c(F)cccc4Cl)c(=O)c3cc2F)c1=O | 135

System: not listed separately
Assay: Equilibrium solubility of compound in SGF at pH 1 using amorphous form of sample incubated for 2 to 5 days by HPLC analysis
Type: ADME
Details: time 2-5 day

Structure (SMILES) | solubility thermodynamic [µg/mL]
CCn1c(CO)nn(-c2cc3c([C@@H](C)C(F)(F)F)cn(-c4ccccc4C)c(=O)c3cc2F)c1=O | < 5

System: not listed separately
Assay: Equilibrium solubility of compound in FaSSIF at pH 6.5 using amorphous form of sample incubated for 2 to 5 days by HPLC analysis
Type: ADME
Details: time 2-5 day

Structure (SMILES) | solubility thermodynamic [µg/mL]
CCn1c(CO)nn(-c2cc3c([C@@H](C)C(F)(F)F)cn(-c4ccccc4C)c(=O)c3cc2F)c1=O | 41 (≈ 83.6 µM)

System: MOLM-13
Assay: Antitumor activity against human MOLM-13 cells xenografted in NSG mouse assessed as tumor growth inhibition at 0.625 to 2.5 mg/kg,po administrated for 21 days relative to control
Type: functional
Details: dose 0.625-2.5 mg/kg, time 21 day

Structure (SMILES) | TGI [%]
CCn1c(CO)nn(-c2cc3c(C(C)C)cn(-c4c(F)cccc4Cl)c(=O)c3cc2F)c1=O | >80
